According to publication PMC8294803, “A Roadmap to the Structure-Related Metabolism Pathways of Per- and Polyfluoroalkyl Substances in the Early Life Stages of Zebrafish (Danio rerio)” (Environmental Health Perspectives, 2021):
Where “and” joins values, the source holds several entries; their conditions need not be identical. Identical values can stand only once.

Tests used:
zebrafish larvae [1] = assay: Identification of taurine conjugates by the DIPIC-Frag method in zebrafish larvae; format: in vivo, Danio rerio; settings: among 74 PFAS
Text: To identify the taurine conjugates in zebrafish larvae exposed to PFAS, we used the data-independent precursor isolation and characteristic fragment (DIPIC-Frag) method developed in previous studies ([Peng et al. 2015], [2016]) to enhance the coverage inspired by the detection of the characteristic fragment from taurine conjugates ( [taurine-H]^− , m/z 124.0063). Then, the taurine fragment peak was extracted from each AIF window across all 243 raw MS data. Once the taurine fragment peak was detected, corresponding precursor ions were identified from the same window and sample by aligning their chromatographic peaks. The precursor ions were further confirmed by their co-occurrences with the taurine fragment across samples. Once precursor ions were identified, the compound formulas and structures were predicted by interpreting high-resolution MS and MS/MS spectra, as mentioned above.

zebrafish embryos [2] = settings: for pericardial oedemata, Mean / spinal curvature, Mean / tail dysplasia, Mean: 5μM through 120 hpf, malformation rate; for Mortality (%): 5 µM, exposure through 120 hpf
zebrafish embryos [3] = assay: Time courses of carboxamides and PFCA metabolites in zebrafish embryos/larvae; format: in vivo, Danio rerio; settings: zebrafish exposed to 5 μM of 19, 31 and 38 separately, N=20, three replicates
Experimental: Time courses of carboxamides (19, 31, and 38) and corresponding perfluoroalkyl carboxylic acid (PFCA) metabolites in zebrafish larvae were investigated. The procedure of zebrafish embryo collection was described above. Twenty embryos were randomly assigned into each well of a 24-well plate. Subsequently, 15 wells were dosed with 3mL of each chemical ( 5μM ). […] The exposure medium was prepared fresh and changed each day, and dead larvae were discarded. For each chemical, 3 wells were harvested every 24 h, and the surviving larvae were transferred to three different tubes for further PFAS extraction ( N=12–18 ).

[4] = test system: liver fatty acid binding protein (L-FABP); design: method as in Yang et al. 2020; settings: ref Yang et al. 2020, cited from earlier work; for Kd: read-out: Kd (μM), L-FABP binding affinity
soil microcosms = test system: soil microcosms; design: method as in Mejia-Avendaño et al. 2016; settings: ref Mejia-Avendaño et al. 2016; cited from earlier work
zebrafish larvae [5] = assay: Nontargeted analysis of PFAS metabolites in zebrafish larvae (high-resolution MS)
Experimental: Zebrafish embryos were collected immediately after spawning, within 1 h, and subsequently transferred to 24-well plates with 1mL of facility water ( 0.036g sea salt, 0.15g sodium bicarbonate in 2L of reverse osmosis water). […] Three well replicates on the same plate were conducted for each concentration of individual chemical. […] Seven batches of experiments were performed to test all 74 PFAS. DMSO controls were incorporated in each batch of exposure experiments. Three replicates were performed for each treatment group, and 20 embryos were used for each replicate. […] For daily replenishment, 2.5mL of old exposure medium were replaced with freshly prepared medium every 24 h from 24 to 96 h post fertilization (hpf). Hatched or dead embryo numbers were recorded every 24 hpf, after which dead embryos were discarded from the growth media. Dead embryos or unhatched embryos were not used for PFAS measurement because the metabolism of PFAS might have been impacted. Zebrafish larvae collection occurred at 120 hpf. First, the larvae were anesthetized by cooling the plate in ice water (0–4°C) for ∼20 min . Then 8–15 larvae in each well were transferred into 1.5-mL tubes. Exposure media was carefully removed, and then the larvae were weighed (wet weight) after blotting excess water with a paper towel. […] Samples were stored at −80 °C until further chemical analysis was performed. Survival rate and hatching rate were calculated by summarizing all the documented data from the whole treatment duration. […] The exposure experiment of PFOSA was repeated using the same procedure as described above.
Each sample was spiked with 2μL of 0.2μg/mL mass-labeled PFAS mixture. Following this, 500μL of dichloromethane/methanol (2:1, vol/vol) was added to each sample for PFAS extraction. Larvae were then homogenized via ultrasonic probe, followed by 30 min of shaking and 30 min of sonication. Each sample was centrifuged at 14,000×g for 5 min, after which the supernatant was transferred to new tubes. Extraction was repeated once and the two supernatants were combined, evaporated under nitrogen flow, and reconstituted in 200μL of methanol for MS analysis.
Three microliters of each zebrafish extract was applied to a C18 column ( 1.5μm; 2.1mm×50mm; Thermo Scientific) and analyzed using a Vanquish ultra-HPLC system (Thermo Fisher Scientific) coupled to a Q Exactive high-resolution mass spectrometer (Thermo Fisher Scientific). The sampler and column compartments were maintained at 4°C and 40°C, respectively. The aqueous mobile phase solution (A) consisted of water, whereas the organic mobile phase solution (B) consisted of acetonitrile. […] MS data was acquired in full scan mode (100–1000 m/z, 70,000 mass resolution, 3×10^6 maximum ions collected per 100 ms), and tandem MS (MS/MS) data was recorded by all-ion fragmentation (AIF) mode. Negative and positive ion modes were carried out simultaneously at a 10-min method duration. […] An overview of the analyses conducted on the various PFAS is available in Table S2.
Nontargeted data analysis was accomplished with R scripts that are available on Github (https://github.com/huiUofT/PFASmetabolite). […] The peak features were matched across samples with a mass tolerance of 2.5 ppm and a RT window of 20 s, after RT adjustment. The ratio of abundances of each feature in treatment groups relative to the control group (DMSO) was calculated. The p -values of the difference between two groups were determined by student’s t -tests.

zebrafish larvae [6] = assay: Bioconcentration factors (BCF) of PFAS in zebrafish larvae; settings: zebrafish larvae; for BCF 0.5µM: 0.5 µM exposure; for BCF 0.5µM / BCF 5µM: 120 hpf, three replicates; for BCF 5µM: 5 µM exposure
Summary of the method: (§1)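 Zebrafish embryos collected within 1 h post-spawning were exposed individually to each PFAS in facility water with DMSO controls, medium renewed every 24 h from 24 to 96 hpf. Live hatched larvae collected at 120 hpf, wet-weighed, extracted with dichloromethane/methanol and analysed by UHPLC–high-resolution MS against mass-labelled standards.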

[7] = as above; settings: zebrafish (Danio rerio), whole larvae, other: immersion in exposure medium, 5 µM
Summary of the method: as §1

Molecule | Taurine conjugates detected (zebrafish larvae [1]) | pericardial oedemata, Mean (zebrafish embryos [2]) [%] | spinal curvature, Mean (zebrafish embryos [2]) [%] | tail dysplasia, Mean (zebrafish embryos [2]) [%] | Mortality (%) (zebrafish embryos [2]) | BCF 0.5µM (zebrafish larvae [6]) [L/kg] | BCF 5µM (zebrafish larvae [6]) [L/kg] | other results
3-(Perfluoro-2-butyl)propane-1,2-diol [compound 30] | taurine conjugates were detected | 2.22 | 2.22 | 0.00 | 0 |  |  | 
O=C(O)C(F)(F)C(F)(F)C(F)(F)F [PFBA (12)] |  |  |  |  |  |  |  | Peak intensity in zebrafish (zebrafish embryos [3]; 24 hpf): 10634213 and 16343253 and 15866316; Peak intensity in zebrafish (zebrafish embryos [3]; 48 hpf): 25172596 and 26956389 and 28007592; Peak intensity in zebrafish (zebrafish embryos [3]; 72 hpf): 26852594 and 32851030 and 26877542; Peak intensity in zebrafish (zebrafish embryos [3]; 96 hpf): 47637483 and 46740315 and 40653414; Peak intensity in zebrafish (zebrafish embryos [3]; 120 hpf): 68162507 and 69974600 and 72855428
O=C(O)C(F)(F)C(F)(F)C(F)(F)C(F)(F)F [PFPeA, perfluoropentanoic acid] |  |  |  |  |  |  |  | Peak intensity in zebrafish (zebrafish embryos [3]; 24 hpf): 42022849 and 47643542 and 46800668; Peak intensity in zebrafish (zebrafish embryos [3]; 48 hpf): 46439212 and 83368187 and 82483907; Peak intensity in zebrafish (zebrafish embryos [3]; 72 hpf): 149000000 and 148000000 and 143000000; Peak intensity in zebrafish (zebrafish embryos [3]; 96 hpf): 242000000 and 252000000 and 243000000; Peak intensity in zebrafish (zebrafish embryos [3]; 120 hpf): 224000000 and 215000000 and 223000000
C[N+](C)(C)CCCNS(=O)(=O)C(F)(F)C(F)(F)C(F)(F)C(F)(F)C(F)(F)C(F)(F)C(F)(F)C(F)(F)F [compound 5, Perfluorooctanesulfonamido ammonium iodide] |  | 0.00 | 1.11 | 0.00 | 2.2 | 48.14 | 56 ± 16 | L-FABP ligand [4]: not identified as L-FABP ligands; Half-life, biodegradation by soil microcosms (soil microcosms): 142 days; Metabolite peak features detected (zebrafish larvae [5]; zebrafish larvae exposed to 5μM): 74; BCF at 0.5μM compared with 5μM (zebrafish larvae [6]): comparable or even higher BCFs at 5μM
O=C(O)C(F)(F)C(F)(F)C(F)(F)F [compound 12, Perfluorobutanoic acid] |  | 1.11 | 0.00 | 0.00 | 4.4 | 2.559 | 1.0 ± 0.28 | Peak intensity of PFCA in zebrafish embryos directly exposed to the PFCA (zebrafish larvae [5]; 5μM through 120 hpf, single replicates, listed as PFBA): 3728507 and 3082077 and 5690847; concentration at 120 hpf [7]: 3.1 ± 0.88 µM
O=C(O)CCC(F)(F)C(F)(F)C(F)(F)C(F)(F)C(F)(F)F [compound 14, 2H,2H,3H,3H-Perfluorooctanoic acid] | taurine conjugates were detected | 0.00 | 0.00 | 1.11 | 1.1 | 6.7299 | 8.7 ± 2.1 | Kd [4]: 158 µM; BCF at 0.5μM compared with 5μM (zebrafish larvae [6]): comparable or even higher BCFs at 5μM
COC(=O)CCC(F)(F)C(F)(F)C(F)(F)C(F)(F)F [compound 39, Methyl 2H,2H,3H,3H-perfluoroheptanoate] | taurine conjugates were detected | 0.00 | 0.00 | 0.00 | 1.1 |  |  | 
OCCCCC(F)(F)C(F)(F)C(F)(F)C(F)(F)F [compound 40, 4:4 Fluorotelomer alcohol] | taurine conjugates were detected | 0.00 | 0.00 | 0.00 | 0 |  |  | Profile of metabolites (%): Alcohol (zebrafish larvae [5]; zebrafish larvae, Figure 5B): 0.00%; Peak intensity: Alcohol (parent FTOH) (zebrafish larvae [5]; zebrafish larvae, single replicates, Figure 5A): 0
OCCCC(F)(F)C(F)(F)C(F)(F)F [compound 49, 3-(Perfluoropropyl)propanol] | taurine conjugates were detected | 0.00 | 0.00 | 0.00 | 1.1 |  |  | 
O=C(O)C=CC(F)(C(F)(F)F)C(F)(F)F [compound 56, 3-(Perfluoroisopropyl)-2-propenoic acid] | taurine conjugates were detected | 0.00 | 0.00 | 0.00 | 4.4 | 2.65 | 1.6 ± 0.21 | 
O=C(O)C(F)(F)C(F)(F)C(F)(F)C(F)(F)C(F)(F)C(F)(F)C(F)(F)F [compound 74, Perfluorooctanoic acid] |  | 0.00 | 0.00 | 0.00 | 4.4 | 31.5419 | 17 ± 3.2 | Kd [4]: 18.7 µM; concentration at 120 hpf [7]: 76 ± 1.6 µM
